According to patent publication US10453555B2, “Parameterizing cell-to-cell regulatory heterogeneities via stochastic transcriptional profiles” (University of Virginia Patent Foundation, priority 2015, dated 2019):

Columns and labels:
p110δ = test: IC87114 inhibitor validation: pAkt immunoblotting after lysophosphatidic acid stimulation; assay type: cell-based, human; conditions: MCF10A-5E cells, 20 μM IC87114 pre-treatment for one hour, 10 μM lysophosphatidic acid for five minutes
Procedure: For p110δ inhibitor experiments, 20 μM IC87114 (Calbiochem) was added to the assay medium and replaced every four days. IC87114 inhibitor validation was performed as follows. MCF10A-5E cells were plated in 6-well dishes and cultured in serum-free medium overnight. Wells were pre-treated with or without 20 μM IC87114 (Calbiochem) for one hour and then stimulated with 10 μM lysophosphatidic acid (Sigma-Aldrich) for five minutes. Cells were lysed as previously described (Wang et al. (2011) Proc Natl Acad U S A 108(40):E803-812), and lysates were probed for pAkt levels by immunoblotting.
Immunoblotting was performed as follows. 30-50 μg of clarified cell extract was separated on an 8% or 10% SDS-PAGE gel and transferred to PVDF (Millipore). Membranes were blocked in 0.5×Odyssey blocking buffer (Licor) for one hour and incubated overnight at 4° C. in 0.5×Odyssey blocking buffer with 0.1% Tween containing one of the following primary antibodies: anti-p110δ (1:500; Santa Cruz Biotechnology) or anti-pAkt Ser473 (1:1000; Cell Signaling). Additionally, chicken anti-tubulin (1:20000; Abeam) was added to each primary solution as a loading control. […]

MCF10A-5E cells = test: Proliferation of acini in 3D culture (phospho-Rb whole-mount immunofluorescence); assay type: cell-based, human; conditions: shGFP control cells + 20 μM IC87114, replaced every four days
Procedure: We next asked whether PIK3CD was specifically important for normal acinar morphogenesis. To eliminate the very-rare PIK3CD^hi subpopulation, p110δ was perturbed by two independent methods: RNA interference and the p110δ-specific small-molecule inhibitor, IC87114 (Knight et al. (2006) Cell 125(4):733-747) (FIG. 18A and FIG. 21). […] Primers were annealed at 95° C. in annealing buffer (10 mM Tris-HCl, 100 mM NaCl, 1 mM EDTA) for 5 min on a thermocycler and cooled slowly to room temperature by unplugging the instrument. Annealed primers were phosphorylated in vitro with T4 polynucleotide kinase (New England Biolabs) and then cloned into pLKO.1 puro (Moffat et al. (2006) Cell 124(6):1283-1298) that had been digested with EcoRI and AgeI. Lentiviruses were packaged and transduced into MCF10A-5E cells and selecting with 2 μg/ml puromycin as previously described (Wang et al. (2011) Proc Natl Acad Sci U S A 108(40):E803-812) to produce shGFP and shPIK3CD cell lines. MCF10A (shGFP, and shPIK3CD) cell lines were cultured in 3D as previously described (Debnath et al. (2003) Methods 30(3):256-268). […]
Whole-mount immunofluorescence of shGFP and shPIK3CD cultures was performed as previously described (Wang et al. (2011) Proc Natl Acad U S A 108(40):E803-812). […] Samples were scored for pRb-positive acini as before (Wang et al. (2011) Proc Natl Acad Sci U S A 108(40):E803-812).

SMILES: Cc1ccccc1-n1c(Cn2cnc3c(N)ncnc32)nc2cccc(C)c2c1=O [IC87114]
- Akt phosphorylation (pAkt Ser473 levels) stimulated by p110δ (p110δ): inhibits Akt phosphorylation
- proliferating (pRb-positive) acini (MCF10A-5E cells): sustained proliferation
